Measured values reported in PubChem BioAssay (NCI).
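Five concentrations, 48 hours, 96-well plates. GI50: concentration for 50% inhibition of growth. TGI is the concentration that stops growth completely.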

Experiments:
Test in all cases: NCI tumour cell line growth inhibition, 48 h
K-562 leukemia = test system: K-562 leukemia
MOLT-4 leukemia = test system: MOLT-4 leukemia
HCT-116 colon = test system: HCT-116 colon
ACHN renal = test system: ACHN renal
SF-295 CNS = test system: SF-295 CNS
SF-539 CNS = test system: SF-539 CNS
LOX IMVI melanoma = test system: LOX IMVI melanoma
HCC-2998 colon = test system: HCC-2998 colon
T-47D breast = test system: T-47D breast
PC-3 prostate = test system: PC-3 prostate

Work on `COc1ccc(CC2(Cc3ccc(OC)cc3)CCOC2=O)cc1` yielded a TGI (K-562 leukemia) greater than 100 µM, a TGI (MOLT-4 leukemia) greater than 100 µM and a TGI (HCT-116 colon) greater than 100 µM. For the same molecule, the TGI (ACHN renal) was greater than 100 µM and the TGI (SF-295 CNS) was greater than 100 µM.

`CCOc1ccc(NC(=O)C(=O)C(C(=O)c2ccc3ccccc3c2)C2OC(=O)c3ccccc32)cc1` (stereo unspecified) was tested, and the TGI (K-562 leukemia) was greater than 100 µM, the TGI (MOLT-4 leukemia) was 43.7 µM and the TGI (HCT-116 colon) was 35.1 µM. It also gave a TGI (SF-539 CNS) of 39 µM, a TGI (LOX IMVI melanoma) of 33.2 µM and a TGI (ACHN renal) greater than 100 µM. It also gave a TGI (HCC-2998 colon) of 23.2 µM.

Molecule `COc1cccc(NC(=O)CC(=O)N2N=C(n3ccc4ccccc43)CC2c2ccccc2)c1` (stereo unspecified) has a TGI (K-562 leukemia) greater than 100 µM, a TGI (MOLT-4 leukemia) greater than 100 µM and a TGI (HCT-116 colon) greater than 100 µM. For the same molecule, the TGI (SF-539 CNS) was greater than 100 µM, the TGI (LOX IMVI melanoma) was greater than 100 µM and the TGI (ACHN renal) was greater than 100 µM. For the same molecule, the TGI (SF-295 CNS) was greater than 100 µM and the TGI (HCC-2998 colon) was greater than 100 µM.

`O=C(N/C(=C\c1ccc(/C=C(\NC(=O)c2ccccc2)c2nc3ccccc3[nH]2)cc1)c1nc2ccccc2[nH]1)c1ccccc1` gave a TGI (K-562 leukemia) greater than 100 µM, a TGI (MOLT-4 leukemia) greater than 100 µM and a TGI (HCT-116 colon) greater than 100 µM. For the same molecule, the TGI (SF-539 CNS) was greater than 100 µM, the TGI (LOX IMVI melanoma) was greater than 100 µM and the TGI (ACHN renal) was greater than 100 µM. It also gave a TGI (SF-295 CNS) greater than 100 µM and a TGI (HCC-2998 colon) greater than 100 µM.

Work on `CC(=O)[CH-]C(=O)c1ccccc1.CC(=O)[CH-]C(=O)c1ccccc1.CC(=O)[CH-]C(=O)c1ccccc1.[In+3]` yielded a GI50 (K-562 leukemia) of 31000 nM, a TGI (K-562 leukemia) greater than 100 µM and a GI50 (HCT-116 colon) of 9320 nM. The TGI (HCT-116 colon) was greater than 100 µM, the GI50 (SF-539 CNS) was 21.6 µM and the TGI (SF-539 CNS) was greater than 100 µM. The GI50 (LOX IMVI melanoma) was 11000 nM, the TGI (LOX IMVI melanoma) was greater than 100 µM and the GI50 (ACHN renal) was 35 µM. The TGI (ACHN renal) was greater than 100 µM, the GI50 (SF-295 CNS) was 24.2 µM and the TGI (SF-295 CNS) was 93.5 µM.

With `C[C@]12CCC(=O)CC1CCCC2=O` (stereo partly specified) the TGI (K-562 leukemia) was greater than 100 µM, the TGI (MOLT-4 leukemia) was greater than 100 µM and the TGI (HCT-116 colon) was greater than 100 µM. It also gave a TGI (SF-539 CNS) greater than 100 µM, a TGI (LOX IMVI melanoma) greater than 100 µM and a TGI (SF-295 CNS) greater than 100 µM. It also gave a TGI (HCC-2998 colon) greater than 100 µM.

Work on `COc1ccc(C(=O)/C=C/c2cccc(Nc3ccnc4cc(Cl)ccc34)c2)cc1` yielded a GI50 (K-562 leukemia) of 1640 nM, a TGI (K-562 leukemia) of 18.1 µM and a GI50 (T-47D breast) of 655 nM. It also gave a TGI (T-47D breast) of 4.64 µM, a GI50 (MOLT-4 leukemia) of 2900 nM and a TGI (MOLT-4 leukemia) greater than 100 µM. The GI50 (PC-3 prostate) was 2510 nM, the TGI (PC-3 prostate) was greater than 100 µM and the GI50 (HCT-116 colon) was 844 nM. For the same molecule, the TGI (HCT-116 colon) was 12.2 µM, the GI50 (SF-539 CNS) was 1.7 µM and the TGI (SF-539 CNS) was 4.3 µM. It also gave a GI50 (LOX IMVI melanoma) of 1580 nM, a TGI (LOX IMVI melanoma) of 11.7 µM and a GI50 (SF-295 CNS) of 0.694 µM. For the same molecule, the TGI (SF-295 CNS) was 16.3 µM.

`O=[N+]([O-])c1ccc(N2CCC(CCCC3CCN(c4ccc([N+](=O)[O-])cc4[N+](=O)[O-])CC3)CC2)c([N+](=O)[O-])c1` was tested, and the TGI (K-562 leukemia) was 55.9 µM, the TGI (T-47D breast) was 29.2 µM and the TGI (MOLT-4 leukemia) was 53.2 µM. The TGI (PC-3 prostate) was 33.7 µM, the TGI (HCT-116 colon) was greater than 100 µM and the TGI (SF-539 CNS) was 36.7 µM. It also gave a TGI (LOX IMVI melanoma) of 30.2 µM, a TGI (ACHN renal) of 35.4 µM and a TGI (SF-295 CNS) of 32.3 µM.

`O=[N+]([O-])c1ccc(N=Nc2ccc(O)c3ccccc23)cc1` showed a GI50 (K-562 leukemia) of 3130 nM, a TGI (K-562 leukemia) greater than 100 µM and a GI50 (MOLT-4 leukemia) of 5220 nM. For the same molecule, the TGI (MOLT-4 leukemia) was greater than 100 µM, the GI50 (PC-3 prostate) was 1670 nM and the TGI (PC-3 prostate) was greater than 100 µM. For the same molecule, the GI50 (HCT-116 colon) was 2020 nM, the TGI (HCT-116 colon) was 13.8 µM and the GI50 (SF-539 CNS) was 10.3 µM. For the same molecule, the TGI (SF-539 CNS) was greater than 100 µM, the GI50 (LOX IMVI melanoma) was 2500 nM and the TGI (LOX IMVI melanoma) was 13.6 µM. It also gave a GI50 (ACHN renal) of 3.13 µM, a TGI (ACHN renal) greater than 100 µM and a GI50 (SF-295 CNS) of 9.89 µM. The TGI (SF-295 CNS) was greater than 100 µM, the GI50 (HCC-2998 colon) was 10.3 µM and the TGI (HCC-2998 colon) was greater than 100 µM.

`Cc1nn(-c2ccc([N+](=O)[O-])cc2)c2ncnc(N/N=C/c3ccccc3O)c12` gave a GI50 (K-562 leukemia) of 448 nM, a TGI (K-562 leukemia) greater than 100 µM and a GI50 (T-47D breast) of 542 nM. The TGI (T-47D breast) was 4.95 µM, the GI50 (MOLT-4 leukemia) was 321 nM and the TGI (MOLT-4 leukemia) was greater than 100 µM. For the same molecule, the GI50 (PC-3 prostate) was 587 nM, the TGI (PC-3 prostate) was greater than 100 µM and the GI50 (SF-539 CNS) was 0.424 µM. It also gave a TGI (SF-539 CNS) of 1.77 µM, a GI50 (LOX IMVI melanoma) of 220 nM and a TGI (LOX IMVI melanoma) of 1.47 µM. For the same molecule, the GI50 (ACHN renal) was 0.3 µM, the TGI (ACHN renal) was 1.29 µM and the GI50 (SF-295 CNS) was 1.14 µM. It also gave a TGI (SF-295 CNS) of 10.3 µM.
